Measurements: patent EP0663826B1, “AMINO ACIDS CONTAINING PARENTERAL FORMULATIONS FOR THE TREATMENT OF HYPOTENSION AND RELATED PATHOLOGIES” (BOARD OF REGENTS THE UNIVERSITY OF TEXAS SYSTEM, priority 1991, dated 1993)
“And” between values parts separate entries of the source, which are not always exact repeats. Identical values can stand only once. Like-named read-outs stand apart in the source and are kept apart here. *1 amine or outer side, *2 acyl side, *3 side chain or, on linkers, in order; H or OH if unused. Where a SMILES comes first, the peptide text is derived from it. Bridges are numbered along the chain shown (N, C = ends). Roman numbers before positions name the chains, in order. [ ]: non-standard residue; d: D form. Actinocin(9to1) = Cc1c2oc3c(C)ccc(C(=O)[*:1])c3nc-2c(C(=O)[*:2])c(N)c1=O; NMeV = CN[C@H](C(=O)O)C(C)C; Sar = CNCC(=O)O

Legend:
[1] = test system: IL-1-Induced Hypotension in Dogs; experiment: IL-1-induced hypotension in dogs; type: in vivo; settings: for MAP increase after NAA: NAA 20 mg/kg iv single bolus
Method: • FIGURE 1 - Reversal of hypotension associated with the administration of IL-1 to dogs. The tracing shown is a representative experiment that was repeated four times. Each dog was anesthetized and […] as described herein, and baseline cardiovascular data were monitored for 30 minutes. IL-1 was dissolved in phosphate-buffered saline (pH 7.4) containing 1 mg/ml of dog albumin, and the resulting solution was infused intravenously for three minutes to deliver a dose of 50 µg/kg. MAP was continuously monitored; when a stable nadir was reached and maintained for more than 10 minutes or when MAP dropped below 50 mm Hg, NAA (20 mg/kg in 10 ml phosphate-buffered saline) was administered by intravenous infusion for 30 seconds. Sixty minutes after MAP was restored to baseline or higher values, L-arginine (400 mg/kg in 20 ml phosphate-buffered saline) was administered by slow intravenous infusion for 5 minutes. Anesthetized dogs given IL-1 (50 µg/kg) developed a progressive, moderately severe hypotension, with MAP decreasing from a baseline of 111 +/- 7 mm Hg to 80 +/- 2 mm Hg within about 3 hours. Hypotension was rapidly reversed by the intravenous administration of a single bolus dose of NAA (20 mg/kg, 88 umol/kg), with MAP increasing by from 46 +/- 9 mm Hg (58%_ to 125 +/- 8 mm Hg. • FIGURES 2A, 2B, 2C - Inhibition of IL-1-activated NO· production by N^ω-substituted arginine analogues. Figure 2A: Comparison of nitrite synthesis inhibition in smooth muscle cells by the L-isomers of NAA, NMA, and NNA and by the D-isomer of NMA. Figure 2B: Concentration dependence of nitrite synthesis inhibition in smooth muscle cells by NAA as a function of different L-arginine concentration in the culture medium. Confluent monolayers of smooth muscle cells in 96-well microtiter plates were treated with a combination of 100 ng/ml IL-1 and 50 ng/ml IFN-γ for 24 hours. Cells were then washed with Hanks' balanced salt solution, and fresh medium containing the indicated concentration of L-arginine was added. Points indicate means ± SD of nitrite production, expressed as percent of control, during a 16-hour exposure to arginine analogues (n = 3-4). Figure 2C: Effect of NAA on smooth muscle cell NO· synthase. Cytosol from cytokine-induced smooth muscle cells (∼2 µg protein) was incubated with 1 mM L-arginine, 0.5 mM NADPH, 1 mM dithiothreitol, 10 µM flavin-adenine dinucleotide, 10 µM tetrahydrobiopterin, and 0.1 U/ml dihydropteridine reductase in a total volume of 100 µL. The time course of Fe^2+-myoglobin oxidation was measured in the absence (control) or presence of 300 µM NAA (+NAA). […] FIGURE A: Time course of nitrite synthesis elicited by 40 ng/mL IL-1 alone (open circles) and by IL-1 in the presence of 50 ng/ml IFN-γ (open triangles). […] Inclusion of IL-1 receptor antagonist (40 µg/mL; filled symbols) in the culture medium inhibited nitrite production stimulated by both IL-1 and IL-1 plus IFN-γ. FIGURE B: IL-1 concentration dependence for smooth muscle cell nitrite production. Data points indicate nitrite produced during a 29-hour incubation with the indicated concentration of IL-1 alone (open circles) or in the presence of IL-1 plus 50 ng/mL IFN-γ (open triangles). All values are means ± SD for nitrite production by confluent smooth muscle cell monolayers grown in 96-well microtiter plates (60-80 X 10^3 cells per well; n = 3-4).
Experiments were conducted on healthy mongrel dogs that were free of microfilaria and weighed 25-28 kg each. […]

ET shock (lethal dose) = experiment: Reversal of ET shock (lethal dose) by multiple doses of NAA; type: in vivo
Method: The reversal of ET shock (lethal dose) by Nω-aminoarginine (NAA) for 4 hrs. […] Figure 8 depicts systemic arterial pressure (SAP) versus time (min). ET (2 mg/kg), a lethal dose, was infused over 60 min. and NAA administered at 97, 165, and 374 min. to maintain blood pressure. The animal was survived for 24 hours and then autopsied.

[2] = test system: Actinomycin D-Treated L929 Cells; experiment: Cytolytic activity of rh-TNF against L929 cells; type: cell-based, murine; settings: murine L929 cells
Method: TNF bioactivity was measured by the cytotoxicity towards murine L929 cells, in vitro. […]

[3] = test system: hypotension associated with the administration of TNF in the dog; experiment: TNF-induced hypotension in the dog; type: in vivo, dogs; settings: dog; Figure 7
Method: Recombinant human TNF, specific activity 2 x 10^7 units/mg, was from the Dainippon Chemical Corporation, Tokyo, Japan. TNF was administered at a dose of 10 µg//kg in a volume of 10 ml of phosphate buffered saline containing 17 mg/ml of dog albumin. […] Arginine was obtained from Sigma Chemical Company, St. Louis, Mo.
Four conditioned mongrel dogs, 2 males and 2 females, weighing 28 to 30 kg, were studied. Care of the animals were in accordance with the recommendations of the American Association for Accreditation of Laboratory Animals [DHEW(DHHS) publication no. (NIH) 78-23, revised, 1978]. On the day of the experiment, the dogs were fasted overnight. They were anesthetized with phenobarbital (25 mg/kg). The animals were then intubated orally with a #10 fr. endotracheal tube and ventilated with a Harvard pump ventilator at a rate of 14 breaths per minute and a tidal volume of 15 ml/kg. An arterial line was percutaneously placed in the femoral artery on the day of the experiment.
Mean (electronic) and phasic systemic arterial pressures (SAP) were continuously recorded on a Hewlett-Packard recording system (model 7758B) using strain gauge manometers (Hewlett-Packard model 1290A) which were connected to the arterial line. Heart rate (HR) was determined from an EKG tracing and continuously recorded on the Hewlett-Packard recording system. Oxyhemoglobin saturation (SaO2) was obtained using a pulse oximeter (BIOX 111, Boulder, CO). Continuous time-series records of SAP, HR, and SaO2 were obtained using a Lab Master analog-to-digital convertor (16 channel, 12 bit, 30 kHz; Scientific Solutions, Inc.) sampling at 55 Hz and storing the 6 sec averages on a magnetic disk.

[4] = test system: nitric oxide synthase in rat aortic smooth muscle cells; experiment: Induction and assay of nitrite synthesis in smooth muscle cells; type: cell-based
Method: Rat aortic smooth muscle cells were incubated with RPMI-1640 medium containing 10% bovine calf serum, 25 mM HEPES buffer (pH 7.4), 2 mM glutamine, […], and IL-1, IFN-γ, and various inhibitors at the concentrations indicated in the figure legends. At the desired times, nitrite concentration in the culture medium was measured using the standard Griess assay adapted to a 96-well microtiter plate reader.^36 The Griess assay is also described in Gross et al.^37 (1991). Thus, 100 µL of Griess reagent (0.5% sulfanilic acid, 0.05% naphthalenediamine, and 2.5% phosphoric acid) was added to an equal volume of culture medium, and the OD550 was measured and related to nitrite concentration by reference to a standard curve. […]
Rat aortic smooth muscle cells were incubated with RPMI-1640 medium containing 10% bovine calf serum, 25 mM HEPES buffer (pH 7.4), 2mM glutamine, 80 U/mL penicillin, 80 µg/mL streptomycin, 2 µg/mL fungizone, and IL-1, IFN-γ, and various inhibitors at the concentrations indicated in the figure legends. At the desired times, nitrite concentration in the culture medium was measured using the standard Griess assay (Green, L., et al. Anal. Biochem. 126:131-138, 1982) adapted to a 96-well microtiter plate reader (Gross, S.S., et al. Biochem. Biophys. Res. Commun. 178:823-829, 1991). […]

[5] = Cell respiration assay (MTT); type: cell-based; settings: rat, aortic smooth muscle cells; read-out: MTT reduction [mean ± SD], of that measured in control cells treated with IL-1 alone
Text: The extent of reduction of MTT to formazan within cells, quantitated by measurement of the optical density at 550 nm (OD550), was taken as an indicator of cellular respiration.

N=C(NN)NCCC[C@H](N)C(=O)O [NAA, N^ω-amino-L-arginine]
systemic vascular resistance after injection of NAA, higher than baseline ([1]; IL-1-treated dogs, average): 43%
MAP increase after NAA ([1]; anesthetized dogs (n = 4) made hypotensive with IL-1 50 µg/kg): 46 ± 9 mm Hg and 46 +/- 9 mm Hg
average increase in MAP above baseline ([1]; control dogs not given IL-1, NAA): 20.1 ± 3.8 mm Hg
MAP after NAA ([1]; dogs given IL-1 50 µg/kg (MAP 80 ± 2 before NAA), NAA 20 mg/kg iv): 125 ± 8 mm Hg and 125 +/- 8 mm Hg
average increase of MAP following NAA above the pre-IL-1 baseline MAP ([1]; dogs given IL-1 50 µg/kg, NAA 20 mg/kg): 14.3 ± 7.7 mm
MAP increase after NAA ([1]; dogs given IL-1 50 µg/kg): 58%
reduction in cardiac output compared with that after IL-1 ([1]; dogs treated with IL-1, then NAA, P = .037): 25.2%
cardiac output after NAA ([1]; dogs treated with IL-1, then NAA, baseline 2.25, P = .204): 1.93 L/min
decrease in cardiac output ([1]; dogs treated with NAA alone, P = .046): 29.2%
duration physiologically acceptable MAP readings maintained ([1]; second and third injections of NAA (20 mg/kg), cytokine-treated dogs): up to 7 hours
duration MAP maintained at baseline or higher levels ([1]; single injections of NAA (20 mg/kg) in cytokine-treated dogs, no L-arginine): up to 60 minutes
survival of the animal (ET shock (lethal dose); ET 2 mg/kg, multiple doses of NAA, then autopsied): 24 h
pathological changes in liver, lungs, heart, brain, bowel or kidney (ET shock (lethal dose); autopsy after 24 hours): No pathological changes were observed
effect on the cytolytic effect of TNF towards tumor cells in vitro [2]: did not alter
reversing the hypotension associated with TNF administration [3]: as effective as NMMA

C[C@@H]1C[C@@H]([C@H](O)CC2CC(=O)NC(=O)C2)C(=O)[C@@H](C)C1 [cycloheximide]
nitrite produced [4]: less than 0.1 nmol

Cc1c2oc3c(C)ccc(C(=O)N[C@@H]4C(=O)N[C@H](C(C)C)C(=O)N5CCC[C@H]5C(=O)N(C)CC(=O)N(C)[C@@H](C(C)C)C(=O)O[C@@H]4C)c3nc-2c(C(=O)N[C@@H]2C(=O)N[C@H](C(C)C)C(=O)N3CCC[C@H]3C(=O)N(C)CC(=O)N(C)[C@@H](C(C)C)C(=O)O[C@@H]2C)c(N)c1=O [dactinomycin] (I: T[dV]P[Sar][NMeV] / II: T[dV]P[Sar][NMeV]; ester I:1-I:C, II:1-II:C; linker I:N-II:N via Actinocin(9to1))
nitrite produced ([4]; cells cultured 14 hours with IL-1 (100 ng/mL) and IFN-γ (50 ng/mL) plus 0.5 mg/mL dactinomycin or 1 mg/mL cycloheximide, then 16 hours in cytokine-free medium, control 2.52): less than 0.1 nmol
viability [5]: 101%
